Laboratory results: PubChem BioAssay AID330 (DTP/NCI, 2004)
Values joined by “and” are separate entries in the source; they are usually repeats but may differ in a detail not shown here. Identical values can stand only once. Inconclusive results and toxic doses are left out. Rule for the calls: active = survival T/C of 150% or more; inactive = T/C below 125% in these data.

Test system: P388 leukemia ip, CD2F1 mice, survival T/C
Assay: NCI In Vivo Anticancer Drug Screen. Data for tumor model P388 Leukemia (intraperitoneal) in CD2F1 (CDF1) mice
Conditions: endpoint: median survival time, higher = longer survival
Method in brief: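 Mice carrying the transplanted tumor received test compound or vehicle. Survival was recorded in each group, and the value is the treated-group measurement divided by that of the vehicle-treated control group.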

[1] = dose: 50.0 mg/kg/injection, schedule: Q01DX009 (ip), vehicle: saline
[2] = dose: 100.0 mg/kg/injection, schedule: Q01DX009 (ip), vehicle: saline
[3] = dose: 100.0 mg/kg/injection, schedule: Q04DX002 (ip), vehicle: saline with Tween-80
[4] = dose: 50.0 mg/kg/injection, schedule: Q01DX005 (ip), vehicle: saline with Tween-80
[5] = dose: 100.0 mg/kg/injection, schedule: Q01DX005 (ip), vehicle: saline with Tween-80
[6] = dose: 50.0 mg/kg/injection, schedule: Q01DX005 (ip), vehicle: saline
[7] = dose: 100.0 mg/kg/injection, schedule: Q01DX005 (ip), vehicle: saline
[8] = dose: 25.0 mg/kg/injection, schedule: Q01DX005 (ip), vehicle: saline with Tween-80
[9] = dose: 60.0 mg/kg/injection, schedule: Q01DX005 (ip), vehicle: saline with Tween-80
[10] = dose: 120.0 mg/kg/injection, schedule: Q01DX005 (ip), vehicle: saline with Tween-80
[11] = dose: 240.0 mg/kg/injection, schedule: Q01DX005 (ip), vehicle: saline with Tween-80
[12] = dose: 50.0 mg/kg/injection, schedule: Q01DX005 (ip), vehicle: Klucel (hydroxypropylcellulose) (HPC)
[13] = dose: 100.0 mg/kg/injection, schedule: Q01DX005 (ip), vehicle: Klucel (hydroxypropylcellulose) (HPC)
[14] = dose: 200.0 mg/kg/injection, schedule: Q01DX005 (ip), vehicle: Klucel (hydroxypropylcellulose) (HPC)
[15] = dose: 50.0 mg/kg/injection, schedule: Q01DX009 (ip), vehicle: Klucel (hydroxypropylcellulose) (HPC)
[16] = dose: 100.0 mg/kg/injection, schedule: Q01DX009 (ip), vehicle: Klucel (hydroxypropylcellulose) (HPC)
[17] = dose: 200.0 mg/kg/injection, schedule: Q01DX009 (ip), vehicle: Klucel (hydroxypropylcellulose) (HPC)

Measured: T/C

COc1cccc2c1C(=O)c1c(O)c3c(c(O)c1C2=O)CC(O)(C(=O)CO)CC3OC1CC(NC(=O)C(F)(F)F)C(OC2CC(N)C(O)C(C)O2)C(C)O1 (stereo not given)
inactive: dose: 3.13 mg/kg/injection, schedule: Q04DX003 (ip), vehicle: water 109 % of control | dose: 12.5 mg/kg/injection, schedule: Q04DX003 (ip), vehicle: water 119 % of control | dose: 25.0 mg/kg/injection, schedule: Q04DX003 (ip), vehicle: water 113 % of control | dose: 50.0 mg/kg/injection, schedule: Q04DX003 (ip), vehicle: water 117 % of control

Nc1ccc(N=C2C=CC(=O)C=C2)c(N)c1
inactive: dose: 12.5 mg/kg/injection, schedule: Q01DX009 (ip), vehicle: saline 102 % of control and 90 % of control | dose: 25.0 mg/kg/injection, schedule: Q01DX009 (ip), vehicle: saline 103 % of control and 112 % of control | [1] 105 % of control | [2] 112 % of control

Cc1cc(O)c2c(c1O)C(=O)C13C(=C2O)C(=O)C2C(O)C1C1C(O)C3C(=O)C3=C(O)c4c(O)cc(C)c(O)c4C(=O)C321 (stereo not given)
inactive: dose: 0.75 mg/kg/injection, schedule: Q01DX005 (ip), vehicle: saline with Tween-80 100 % of control and 106 % of control | dose: 0.78 mg/kg/injection, schedule: Q01DX009 (ip), vehicle: saline with Tween-80 116 % of control | dose: 1.5 mg/kg/injection, schedule: Q01DX005 (ip), vehicle: saline with Tween-80 111 % of control and 115 % of control | dose: 3.0 mg/kg/injection, schedule: Q01DX005 (ip), vehicle: saline with Tween-80 115 % of control

OC1COC(c2nn(-c3ccccc3)c3nc4ccc(Cl)cc4nc23)C1O (stereo not given)
inactive: [3] 107 % of control | dose: 200.0 mg/kg/injection, schedule: Q04DX002 (ip), vehicle: saline with Tween-80 97 % of control | dose: 400.0 mg/kg/injection, schedule: Q04DX002 (ip), vehicle: saline with Tween-80 95 % of control

FC(F)(F)C1=C(C(F)(F)F)OP2(Oc3ccccc3)(O1)Oc1ccccc1O2
inactive: dose: 25.0 mg/kg/injection, schedule: Q04DX003 (ip), vehicle: suspension in saline 102 % of control | dose: 50.0 mg/kg/injection, schedule: Q04DX003 (ip), vehicle: suspension in saline 101 % of control | dose: 100.0 mg/kg/injection, schedule: Q04DX003 (ip), vehicle: suspension in saline 97 % of control

C/C(N=NC(=S)N1CC2CCC(CC2)C1)=C1\C=CC=CN1O
inactive: [4] 105 % of control | [5] 98 % of control | dose: 200.0 mg/kg/injection, schedule: Q01DX005 (ip), vehicle: saline with Tween-80 101 % of control

CCOCC[Se]c1ccccc1
inactive: [1] 92 % of control | [2] 92 % of control | dose: 200.0 mg/kg/injection, schedule: Q01DX009 (ip), vehicle: saline 91 % of control

C=Cn1c([N+](=O)[O-])cnc1/C=C/c1ccc(C(=O)OCCN2CCOCC2)cc1
inactive: dose: 25.0 mg/kg/injection, schedule: Q04DX002 (ip), vehicle: saline with Tween-80 101 % of control | dose: 50.0 mg/kg/injection, schedule: Q04DX002 (ip), vehicle: saline with Tween-80 101 % of control | [3] 103 % of control and 90 % of control

N#CCCC[n+]1cc2ccccc2c2ccccc21
inactive: dose: 25.0 mg/kg/injection, schedule: Q01DX005 (ip), vehicle: saline 100 % of control | [6] 101 % of control and 109 % of control | [7] 105 % of control and 112 % of control

Nc1ccc2c(C(F)(F)F)cc(=O)[nH]c2c1
inactive: [8] 100 % of control | [4] 91 % of control | [5] 92 % of control

CCc1cccc(C)c1NC(=O)C(=O)CC(=O)c1ccccc1Cl
inactive: [6] 103 % of control | [7] 107 % of control | dose: 200.0 mg/kg/injection, schedule: Q01DX005 (ip), vehicle: saline 103 % of control

C#CC(C)(CC(C)C)OCCN(CC)CC (stereo not given)
inactive: dose: 6.25 mg/kg/injection, schedule: Q01DX005 (ip), vehicle: saline with Tween-80 106 % of control | dose: 12.5 mg/kg/injection, schedule: Q01DX005 (ip), vehicle: saline with Tween-80 104 % of control | [8] 104 % of control

COc1ccc2cc1Oc1ccc(cc1)CC1c3c(c(OC)c(OC)c(OC)c3Oc3cc4c(cc3OC)CCN(C)C4C2)CCN1C (stereo not given)
inactive: dose: 15.0 mg/kg/injection, schedule: Q01DX009 (ip), vehicle: saline 94 % of control | dose: 30.0 mg/kg/injection, schedule: Q01DX009 (ip), vehicle: saline 94 % of control | dose: 60.0 mg/kg/injection, schedule: Q01DX009 (ip), vehicle: saline 103 % of control

CN1NC(c2ccccc2)=NN=C1c1ccccc1
inactive: [9] 104 % of control | [10] 102 % of control | [11] 105 % of control

CN(C)c1ccc(C2OC2C(=O)n2ccc(=O)n(C(=O)C3OC3c3ccc(N(C)C)cc3)c2=O)cc1 (stereo not given)
inactive: dose: 100.0 mg/kg/injection, schedule: Q04DX002 (ip), vehicle: saline 101 % of control | dose: 200.0 mg/kg/injection, schedule: Q04DX002 (ip), vehicle: saline 100 % of control | dose: 400.0 mg/kg/injection, schedule: Q04DX002 (ip), vehicle: saline 97 % of control

Cc1ccc(O)c(C(=NCCCCN=C(c2ccccc2)c2cc(C)ccc2O)c2ccccc2)c1
inactive: [12] 99 % of control | [13] 94 % of control | [14] 99 % of control

c1ccc(CCNCCN2CCNCC2)cc1
inactive: dose: 60.0 mg/kg/injection, schedule: Q01DX005 (ip), vehicle: saline 108 % of control | dose: 120.0 mg/kg/injection, schedule: Q01DX005 (ip), vehicle: saline 99 % of control

CCOC(=O)C/[N+]([O-])=C/c1ccccc1
inactive: dose: 12.5 mg/kg/injection, schedule: Q01DX009 (ip), vehicle: other 100 % of control | dose: 25.0 mg/kg/injection, schedule: Q01DX009 (ip), vehicle: other 98 % of control | dose: 50.0 mg/kg/injection, schedule: Q01DX009 (ip), vehicle: other 117 % of control | dose: 100.0 mg/kg/injection, schedule: Q01DX009 (ip), vehicle: other 100 % of control | dose: 200.0 mg/kg/injection, schedule: Q01DX009 (ip), vehicle: other 100 % of control

CC(C)(C)OC(=O)N1CCCC1C(=O)O (stereo not given)
inactive: [12] 100 % of control | [13] 106 % of control | [14] 99 % of control

CC(C)S(=O)(=O)c1ccc(Cl)cc1[N+](=O)[O-]
inactive: [15] 100 % of control | [16] 99 % of control | [17] 99 % of control

COc1cc(/C=C2\C(=O)C3CCN2CC3)cc(OC)c1OC
inactive: [15] 96 % of control | [16] 93 % of control | [17] 114 % of control

CC(C)c1c(CN(C)C(C)Cc2ccccc2)n(C)n(-c2ccccc2)c1=O (stereo not given)
inactive: [9] 108 % of control | [10] 105 % of control | [11] 98 % of control
